14 molecules from patent publication US8729017B2 (priority 2011, dated 2014) can be followed below.

Holding throughout (type): cell-based
One assay has as its target T1, GIP receptor (Homo sapiens, UniProt P48546).
T1 construct: expressed in transfected cells; host or cells: HEK293
T1 sequence (P48546 22-466): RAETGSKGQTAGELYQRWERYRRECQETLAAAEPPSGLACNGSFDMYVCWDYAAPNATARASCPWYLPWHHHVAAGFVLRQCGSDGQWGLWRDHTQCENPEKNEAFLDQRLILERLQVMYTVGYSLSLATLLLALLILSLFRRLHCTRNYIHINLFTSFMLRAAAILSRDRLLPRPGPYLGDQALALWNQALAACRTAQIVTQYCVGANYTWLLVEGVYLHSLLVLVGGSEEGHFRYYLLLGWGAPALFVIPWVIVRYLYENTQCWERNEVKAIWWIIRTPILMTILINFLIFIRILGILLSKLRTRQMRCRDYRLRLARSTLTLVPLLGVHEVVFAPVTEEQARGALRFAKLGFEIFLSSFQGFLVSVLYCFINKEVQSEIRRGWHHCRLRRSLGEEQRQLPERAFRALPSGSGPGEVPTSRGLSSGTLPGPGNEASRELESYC
Description: in vitro agonist activity at the GIP receptor (cAMP luciferase reporter, HEK293 cells). The settings on record: in vitro agonist activity; for EC50: read-out: EC50 (nM) at GIP receptor. The protocol: It is understood that a lower EC50 indicates higher activity or potency at the receptor. […] The ability of each peptide to induce cAMP was measured in a firefly luciferase-based reporter assay. […] At the end of the incubation, 100 μL of LucLite luminescence substrate reagent (Perkin Elmer, Wellesley, Mass.) were added to each well. […] In some instances, the in vitro agonist activity at the GIP receptor was also tested.

For a further assay, the target named is T2, glucagon receptor (Homo sapiens, UniProt P47871).
T2 construct: expressed in transfected cells; host or cells: HEK293
Put plainly: cAMP induction, firefly luciferase reporter assay in HEK293 cells co-transfected with the glucagon receptor. As to conditions: HEK293 cells, cAMP-responsive luciferase reporter, 5 hours incubation. The protocol:
(§1) The ability of each peptide to induce cAMP was measured in a firefly luciferase-based reporter assay. […] At the end of the incubation, 100 μL of LucLite luminescence substrate reagent (Perkin Elmer, Wellesley, Mass.) were added to each well. […] In some instances, the in vitro agonist activity at the GIP receptor was also tested.

Another assay concerns the target T3, GLP-1 receptor (Homo sapiens, UniProt P43220).
T3 construct: expressed in transfected cells; host or cells: HEK293
Description: cAMP induction, firefly luciferase reporter assay in HEK293 cells co-transfected with the GLP-1 receptor. As to conditions: HEK293 cells, cAMP-responsive luciferase reporter, 5 hours incubation. The protocol:
as §1
For orientation: A reporter such as luciferase makes a cellular process visible.

[1] abbreviates: read-out: EC50 (nM) at glucagon receptor.
The mark [2] stands for this setting: read-out: EC50 (nM) at GLP-1 receptor.

Where two headings read alike, the source gives them in different places. Numbered stars: 1 amine (or outer) side, 2 acyl side, 3 side chain; on linkers, the order of the positions; unused ones are H or OH. Square brackets hold non-standard residues; d marks the D form. Side chains are listed from the residue outwards. Ends that are not written are not given here. Peptide text beside a SMILES is read from it. * marks the point of attachment. γGlu = O=C(O)[C@H](CCC(=O)[*:2])N[*:1]; Palmitoyl = CCCCCCCCCCCCCCCC(=O)*; Aib = CC(C)(N)C(=O)O

T2 sequence (P47871 26-477, species assumed): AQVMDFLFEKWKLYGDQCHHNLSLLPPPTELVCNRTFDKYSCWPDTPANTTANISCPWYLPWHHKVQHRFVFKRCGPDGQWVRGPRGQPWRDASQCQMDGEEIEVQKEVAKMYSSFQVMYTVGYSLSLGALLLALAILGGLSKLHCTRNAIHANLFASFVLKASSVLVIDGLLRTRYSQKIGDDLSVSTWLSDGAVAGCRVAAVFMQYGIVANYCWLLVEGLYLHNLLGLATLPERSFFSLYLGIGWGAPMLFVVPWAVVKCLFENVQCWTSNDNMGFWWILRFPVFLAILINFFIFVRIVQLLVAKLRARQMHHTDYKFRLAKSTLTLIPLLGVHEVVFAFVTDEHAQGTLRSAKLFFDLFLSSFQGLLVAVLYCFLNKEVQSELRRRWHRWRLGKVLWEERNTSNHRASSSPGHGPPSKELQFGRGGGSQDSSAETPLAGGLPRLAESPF
T3 sequence (P43220 24-463): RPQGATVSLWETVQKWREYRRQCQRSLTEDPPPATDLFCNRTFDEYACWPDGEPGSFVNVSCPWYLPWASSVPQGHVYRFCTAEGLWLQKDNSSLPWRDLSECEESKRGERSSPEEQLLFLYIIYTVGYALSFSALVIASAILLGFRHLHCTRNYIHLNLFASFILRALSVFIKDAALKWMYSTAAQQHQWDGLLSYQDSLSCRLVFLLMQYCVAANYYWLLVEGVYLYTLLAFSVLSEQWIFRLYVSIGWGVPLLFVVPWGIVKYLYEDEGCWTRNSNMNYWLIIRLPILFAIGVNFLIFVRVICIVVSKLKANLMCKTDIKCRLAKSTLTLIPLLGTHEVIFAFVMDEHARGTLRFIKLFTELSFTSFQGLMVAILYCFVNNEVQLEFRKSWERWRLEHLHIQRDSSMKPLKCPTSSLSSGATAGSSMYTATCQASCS

As to “13 (H[Aib]QGTFTSDYSKYLDEKRA[Aib]EFVC(PEG 40 kDa)WLLDT-NH2) [compound 13]”, the “EC50 (nM) at GIP receptor” value with GIP receptor is reported as “no activity”.
On the same count and under the same terms, next, “38 (H[Aib]QGTFTSDYSKYLD[Aib]KRA[Aib]EFVC(PEG 40 kDa)WLLDT-NH2) [compound 38]”: “no activity”; “41 (H[Aib]QGTFTSDYSKYLDEKRA[Aib]EFVC(PEG 40 kDa)WLL[Aib]T-NH2) [compound 41]”: “no activity”; “45 (H[Aib]QGTFTSDYSKYLDEKRA[Aib]EFVC(PEG 40 kDa)WLLDT-OH) [compound 45]”: “no activity”.
The same measure, in the same setting: next, “46 (H[Aib]QGTFTSDYSKYLD[Aib]KRA[Aib]EFVC(PEG 40 kDa)WLLDGGPSSGAPPPS-NH2) [compound 46]”: “no activity”; “47 (H[Aib]QGTFTSDYSKYLDEKRA[Aib]EFVC(PEG 40 kDa)WLLDGGPSSGAPPPS-NH2) [compound 47]”: “no activity”.
Consider “51 (H[Aib]QGTFTSDYSKYLDEKRA[Aib]EFVC(PEG 40 kDa (thioether via iodoacetyl))WLL[Aib]GGPSSGAPPPS-NH2) [compound 51]”, for which the “EC50 (nM) at GIP receptor” value in the assay with GIP receptor is “no activity”.
On to “52 (H[Aib]QGTFTSDYSKYLDEK[Aib]AKEFVC(PEG 40 kDa (thioether via iodoacetyl))WLLDT-NH2) [compound 52]”, for which the “EC50 (nM) at GIP receptor” value with GIP receptor is reported as “no activity”.
A word on the EC50: it is the concentration giving half of the maximal effect. For the molecule `CCCCCCCCCCCCCCCC(=O)N[C@@H](CCC(=O)NCCCC[C@H](NC(=O)[C@H](CC(=O)O)NC(=O)[C@H](CO)NC(=O)[C@@H](NC(=O)[C@H](Cc1ccccc1)NC(=O)[C@@H](NC(=O)CNC(=O)[C@H](CCC(N)=O)NC(=O)[C@@H](CO)NC(=O)CCc1c[nH]cn1)[C@@H](C)O)[C@@H](C)O)C(=O)N[C@@H](CO)C(=O)N[C@@H](CCCCN)C(=O)N[C@@H](Cc1ccc(O)cc1)C(=O)N[C@@H](CC(C)C)C(=O)N[C@@H](CC(=O)O)C(=O)N[C@@H](CCC(=O)O)C(=O)N[C@@H](CCCNC(=N)N)C(=O)N[C@@H](C)C(=O)N[C@@H](C)C(=O)N[C@@H](CCC(N)=O)C(=O)N[C@@H](CC(=O)O)C(=O)N[C@@H](Cc1ccccc1)C(=O)N[C@H](C(=O)N[C@@H](CCC(N)=O)C(=O)N[C@@H](Cc1c[nH]c2ccccc12)C(=O)N[C@@H](CC(C)C)C(=O)N[C@@H](CC(C)C)C(=O)N[C@@H](CC(=O)O)C(=O)N[C@H](C(N)=O)[C@@H](C)O)C(C)C)C(=O)O` [compound 20], the results for the EC50 on glucagon receptor, on GLP-1 receptor and at GIP receptor were 0.006 nM, 0.004 nM and 1.38 nM, respectively.
Consider `CCCCCCCCCCCCCCCC(=O)N[C@@H](CCC(=O)NCCCC[C@H](NC(=O)[C@H](CC(=O)O)NC(=O)[C@H](CO)NC(=O)[C@@H](NC(=O)[C@H](Cc1ccccc1)NC(=O)[C@@H](NC(=O)CNC(=O)[C@H](CCC(N)=O)NC(=O)[C@@H](CO)NC(=O)[C@H](Cc1c[nH]cn1)NC(C)=O)[C@@H](C)O)[C@@H](C)O)C(=O)N[C@@H](CO)C(=O)N[C@@H](CCCCN)C(=O)N[C@@H](Cc1ccc(O)cc1)C(=O)N[C@@H](CC(C)C)C(=O)N[C@@H](CC(=O)O)C(=O)N[C@@H](CCC(=O)O)C(=O)N[C@@H](CCCNC(=N)N)C(=O)N[C@@H](C)C(=O)N[C@@H](C)C(=O)N[C@@H](CCC(N)=O)C(=O)N[C@@H](CC(=O)O)C(=O)N[C@@H](Cc1ccccc1)C(=O)N[C@H](C(=O)N[C@@H](CCC(N)=O)C(=O)N[C@@H](Cc1c[nH]c2ccccc12)C(=O)N[C@@H](CC(C)C)C(=O)N[C@@H](CC(C)C)C(=O)N[C@@H](CC(=O)O)C(=O)N[C@H](C(N)=O)[C@@H](C)O)C(C)C)C(=O)O` [compound 21], for which the EC50 at glucagon receptor came to 0.005 nM; at GLP-1 receptor it was 0.009 nM; on GIP receptor it was 4.5 nM.
Taken in the same sequence, the figures for `CCCCCCCCCCCCCCCC(=O)N[C@@H](CCC(=O)N[C@@H](CCC(=O)NCCCC[C@H](NC(=O)[C@H](CC(=O)O)NC(=O)[C@H](CO)NC(=O)[C@@H](NC(=O)[C@H](Cc1ccccc1)NC(=O)[C@@H](NC(=O)CNC(=O)[C@H](CCC(N)=O)NC(=O)C(C)(C)NC(=O)[C@@H](N)Cc1c[nH]cn1)[C@@H](C)O)[C@@H](C)O)C(=O)N[C@@H](CO)C(=O)N[C@@H](CCCCN)C(=O)N[C@@H](Cc1ccc(O)cc1)C(=O)N[C@@H](CC(C)C)C(=O)N[C@@H](CC(=O)O)C(=O)NC(C)(C)C(=O)N[C@@H](CCCNC(=N)N)C(=O)N[C@@H](C)C(=O)N[C@@H](C)C(=O)N[C@@H](CCC(N)=O)C(=O)N[C@@H](CC(=O)O)C(=O)N[C@@H](Cc1ccccc1)C(=O)N[C@H](C(=O)N[C@@H](CCC(N)=O)C(=O)N[C@@H](Cc1c[nH]c2ccccc12)C(=O)N[C@@H](CC(C)C)C(=O)N[C@@H](CCSC)C(=O)N[C@@H](CC(=O)O)C(=O)NCC(=O)N[C@@H](CCCNC(=N)N)C(=O)NCC(N)=O)C(C)C)C(=O)O)C(=O)O` [compound 22] (H-H[Aib]QGTFTSDK([γGlu-γGlu-Palmitoyl])SKYLD[Aib]RAAQDFVQWLMDGRG-NH2; N-terminus assumed) were 0.005 nM, 0.002 nM and 2.37 nM.
Turning to `CC[C@H](C)[C@H](NC(=O)[C@H](Cc1ccccc1)NC(=O)[C@H](CC(C)C)NC(=O)[C@H](CCCNC(=N)N)NC(=O)[C@@H](NC(=O)[C@H](C)NC(=O)[C@H](CCC(N)=O)NC(=O)[C@H](CCC(=O)O)NC(=O)[C@H](CC(=O)O)NC(=O)[C@H](CC(C)C)NC(=O)[C@H](Cc1ccc(O)cc1)NC(=O)[C@H](CCCCN)NC(=O)[C@H](CO)NC(=O)[C@H](Cc1ccc(O)cc1)NC(=O)[C@H](CC(=O)O)NC(=O)[C@H](CO)NC(=O)[C@@H](NC(=O)[C@H](Cc1ccccc1)NC(=O)[C@@H](NC(=O)CNC(=O)[C@H](CCC(N)=O)NC(=O)[C@@H](CO)NC(=O)[C@@H](N)Cc1c[nH]cn1)[C@@H](C)O)[C@@H](C)O)C(C)C)C(=O)N[C@@H](CS)C(=O)N[C@@H](Cc1c[nH]c2ccccc12)C(=O)N[C@@H](CC(C)C)C(=O)N[C@@H](CC(C)C)C(=O)N[C@@H](CC(=O)O)C(=O)NCC(=O)NCC(=O)N1CCC[C@H]1C(=O)N[C@@H](CO)C(=O)N[C@@H](CO)C(=O)NCC(=O)N[C@@H](C)C(=O)N1CCC[C@H]1C(=O)N1CCC[C@H]1C(=O)N1CCC[C@H]1C(=O)N[C@@H](CO)C(N)=O` [compound 62] (H-H[dS]QGTFTSDYSKYLDEQAVRLFICWLLDGGPSSGAPPPS-NH2; N-terminus assumed), the EC50 on glucagon receptor (setting [1]) is 0.132 nM; at GLP-1 receptor (setting [2]) it was 0.006 nM.
With `CCCCCCCCCCCCCCCC(=O)N[C@@H](CCC(=O)NCCCC[C@H](NC(=O)[C@H](CC(=O)O)NC(=O)[C@H](CO)NC(=O)[C@@H](NC(=O)[C@H](Cc1ccccc1)NC(=O)[C@@H](NC(=O)CNC(=O)[C@H](CCC(N)=O)NC(=O)[C@@H](CO)NC(=O)[C@@H](N)Cc1c[nH]cn1)[C@@H](C)O)[C@@H](C)O)C(=O)N[C@@H](CO)C(=O)N[C@@H](CCCCN)C(=O)N[C@@H](Cc1ccc(O)cc1)C(=O)N[C@@H](CC(C)C)C(=O)N[C@@H](CC(=O)O)C(=O)N[C@@H](CCC(=O)O)C(=O)N[C@@H](CCC(N)=O)C(=O)N[C@@H](C)C(=O)N[C@@H](C)C(=O)N[C@@H](CCCCN)C(=O)N[C@@H](CCC(=O)O)C(=O)N[C@@H](Cc1ccccc1)C(=O)N[C@H](C(=O)N[C@@H](CS)C(=O)N[C@@H](Cc1c[nH]c2ccccc12)C(=O)N[C@@H](CC(C)C)C(=O)N[C@@H](CC(C)C)C(=O)N[C@@H](CC(=O)O)C(=O)N[C@H](C(N)=O)[C@@H](C)O)[C@@H](C)CC)C(=O)O` [compound 64], the EC50 at glucagon receptor (setting [1]) was found to be 0.009 nM; on GLP-1 receptor (setting [2]), 0.012 nM.
Regarding `CCCCCCCCCCCCCCCC(=O)N[C@@H](CCC(=O)NCCCC[C@H](NC(=O)[C@H](CC(=O)O)NC(=O)[C@H](CO)NC(=O)[C@@H](NC(=O)[C@H](Cc1ccccc1)NC(=O)[C@@H](NC(=O)CNC(=O)[C@H](CCC(N)=O)NC(=O)[C@@H](CO)NC(=O)[C@@H](N)Cc1c[nH]cn1)[C@@H](C)O)[C@@H](C)O)C(=O)N[C@@H](CO)C(=O)N[C@@H](CCCCN)C(=O)N[C@@H](Cc1ccc(O)cc1)C(=O)N[C@@H](CC(C)C)C(=O)N[C@@H](CC(=O)O)C(=O)N[C@@H](CCC(=O)O)C(=O)N[C@@H](CCC(N)=O)C(=O)N[C@@H](C)C(=O)N[C@@H](C)C(=O)N[C@@H](CCCCN)C(=O)N[C@@H](CCC(=O)O)C(=O)N[C@@H](Cc1ccccc1)C(=O)N[C@H](C(=O)N[C@@H](CS)C(=O)N[C@@H](Cc1c[nH]c2ccccc12)C(=O)N[C@@H](CC(C)C)C(=O)N[C@@H](CC(C)C)C(=O)N[C@@H](CC(=O)O)C(=O)N[C@H](C(=O)N[C@@H](CCC(=O)O)C(N)=O)[C@@H](C)O)[C@@H](C)CC)C(=O)O` [compound 65], the results for the EC50 at glucagon receptor (setting [1]) and at GLP-1 receptor (setting [2]) were 0.028 nM and 0.024 nM, respectively.
